For assay [1], the target named is T1, β-secretase(BACE) (Homo sapiens, UniProt P56817).
T1 construct: purchased Panvera
Description: BACE FS1% Inhibition Assay. Conditions: FS1 substrate; for inhibition at 0.3 µM: 0.3 μM test compound; for inhibition at 1 µM: 1 μM test compound; for inhibition at 3 µM: 3 μM test compound. Format: biochemical. In a few lines:
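Percent inhibition at each tested concentration, referenced to enzyme-free blank and vehicle-only positive control. Reaction: compound and BACE (4 μg/mL working stock) mixed 20 min at room temperature before FS1 substrate (300 μg/mL working stock), then 1 h at room temperature.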

For assay [2], the target named is T1, β-secretase(BACE). Description: BACE Assay-2 (FS1 substrate, IC50 and Ki). Format: biochemical. Conditions: procedure of Example 159, FS1 substrate; read-out: Ki μM (159). The procedure:
The FS1-substrate stock solution was prepared in DMSO as a 10 mg/mL solution. The FS1-substrate working solution was prepared by diluting the 10 mg/mL stock solution with substrate assay buffer to a final concentration of 300 μg/mL. The β-secretase (BACE) working solution was prepared by diluting a 0.83 mg/mL BACE stock solution with enzyme assay buffer to a final concentration of 4 μg/mL.
Test compounds were dissolved in DMSO at 10 mM.
The procedure for this assay was as follows: 15 μL of BACE working solution was pipetted into each well of a 96-well plate. To each well was then pipetted 2 μL of test compound at the selected concentration. Test compound and BACE were then mixed with a pipettor and incubated for 20 min at room temperature. To each well was then added 10 μL of the FS1 substrate working solution.
The procedure for the positive control was as follows: 15 μL of BACE working solution was pipetted into each well to be used as a positive control. To each well was then pipetted 2 μL of vehicle. Vehicle and BACE were then mixed with a pipettor and incubated for 20 min at room temperature. To each well was then added 10 μL of the FS1 substrate working solution.
For test compounds, measured at multiple concentrations, the measured T0 and T60 values were used to calculate an IC50 value using Graphpad Software (or PIR). For test compounds, Ki inhibition was determined as follows: For each compound concentration and positive control, rate of cleavage of substrate (Vi, where i=compound concentration in μM) was determined as Δ Fluorescence/Δ time (min). Cleavage rates (Vi) were plotted as a function of inhibitor concentration in μM [I]. The Ki was then determined by fitting the following equation to the graph of [I] vs Vi Y=aVmax/(50+24*(1+X/Ki)),

[3] abbreviates: read-out: % Inhibition (FS) 0.3 μM.
The mark [4] stands for this setting: read-out: % Inhibition (FS) 1 μM.
Setting [5] is: read-out: % Inhibition (FS) 3 μM.

The inhibition is the change of the read-out against control, counted positive when it falls. One may read the Ki as the equilibrium dissociation constant of an inhibitor or competing ligand from its target.

Read-outs that look alike come from different tables or passages of the source. Where only a bound is given, the exact number is not on record here.

T1 sequence (P56817 46-501): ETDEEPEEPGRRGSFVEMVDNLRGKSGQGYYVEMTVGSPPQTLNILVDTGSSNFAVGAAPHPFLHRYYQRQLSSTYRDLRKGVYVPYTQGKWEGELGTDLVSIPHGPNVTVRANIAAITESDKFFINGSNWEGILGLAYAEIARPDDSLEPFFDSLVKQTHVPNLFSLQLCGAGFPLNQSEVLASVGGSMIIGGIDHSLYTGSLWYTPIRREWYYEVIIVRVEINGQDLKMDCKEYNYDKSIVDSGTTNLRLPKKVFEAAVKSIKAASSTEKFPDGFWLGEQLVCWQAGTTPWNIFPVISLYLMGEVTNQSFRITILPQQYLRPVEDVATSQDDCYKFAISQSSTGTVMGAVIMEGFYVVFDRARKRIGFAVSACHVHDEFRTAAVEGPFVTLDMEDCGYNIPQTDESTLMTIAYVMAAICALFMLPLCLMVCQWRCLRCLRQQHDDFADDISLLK

As for `NC1=Nc2ccc(Oc3ccccc3)cc2CN1[C@@H](CCC(=O)N[C@H](CO)C(=O)O)C1CCOCC1` [Compound 773, 2-[4-(2-Amino-6-phenoxy-4H-quinazolin-3-yl)-4S-(tetrahydro-pyran-4-yl)-butyrylamino]-3R-hydroxy-propionic acid], at β-secretase(BACE) [1] (read-out: % Inhibition (FS)), the inhibition at 0.3 µM turned out to be 102%, the inhibition at 1 µM was determined as 111% and the inhibition at 3 µM turned out to be 119%. In addition, the Ki at β-secretase(BACE) [2] was found to be 0.028 µM.
For the compound `NC1=Nc2ccc(-c3ccccc3)cc2CN1CCNC(=O)C1CCCCC1` [Compound 515], on β-secretase(BACE) [1] (setting [3]), the inhibition at 0.3 µM came to 41%. Further, the inhibition at 1 µM on β-secretase(BACE) [1] (setting [4]) amounted to 66%. The inhibition at 3 µM on β-secretase(BACE) [1] (setting [5]) came to 110%. Further, the Ki on β-secretase(BACE) [2] is 0.13 µM.
Consider `CC(C)(C)OC[C@@H](NC(=O)CC[C@@H](C1CCOCC1)N1Cc2cc(Oc3ccccc3)ccc2N=C1N)C(=O)O` [Compound 774, 2-[4-(2-Amino-6-phenoxy-4H-quinazolin-3-yl)-4S-(tetrahydro-pyran-4-yl)-butyrylamino]-3R-tert-butoxy-propionic acid], for which, at β-secretase(BACE) [1] (read-out: % Inhibition (FS)), the inhibition at 0.3 µM came to 122%, the inhibition at 1 µM worked out at 120% and the inhibition at 3 µM came out at 124%. Moreover, the inhibition constant Ki on β-secretase(BACE) [2] was determined as 0.003 µM.
Take `CONC1=Nc2ccc(-c3ccccc3OC)cc2CN1Cc1cccc(C(=O)N(C)C2CCCCC2)c1` [Compound 605, N-Cyclohexyl-3-[2-methoxyamino-6-(2-methoxy-phenyl)-4H-quinazolin-3-ylmethyl]-N-methyl-benzamide]: the inhibition at 0.3 µM at β-secretase(BACE) [1] (setting [3]) came to 47%. Also, on β-secretase(BACE) [1] (setting [4]), the inhibition at 1 µM is 72%. In addition, the inhibition at 3 µM on β-secretase(BACE) [1] (setting [5]) was 111%. For the same compound, the Ki on β-secretase(BACE) [2] was 0.54 µM.
As to `Cc1cc(CN(C)C(=O)CC[C@@H](C2CCCCC2)N2Cc3cc(-c4ccccc4F)ccc3N=C2N)on1` [Compound 723], at β-secretase(BACE) [1] (read-out: % Inhibition (FS)), the inhibition at 0.3 µM is 47%, the inhibition at 1 µM turned out to be 63% and the inhibition at 3 µM turned out to be 111%. The Ki at β-secretase(BACE) [2] was found to be 0.23 µM.
Take `CN(C(=O)c1cccc(CN2Cc3cc(-c4ccccc4C(F)(F)F)ccc3N=C2N)c1)C1CCCCC1` [Compound 268]: the inhibition at 0.3 µM on β-secretase(BACE) [1] (setting [3]) was less than 30%. The inhibition at 1 µM on β-secretase(BACE) [1] (setting [4]) is less than 30%. In addition, the inhibition at 3 µM at β-secretase(BACE) [1] (setting [5]) was determined as 71%. On β-secretase(BACE) [2], the Ki was 0.65 µM.
On to `NC1=Nc2ccc(Oc3ccccc3)cc2CN1C(CNC(=O)C(c1ccccc1)c1ccccc1)C1CCCCC1` (stereo not drawn) [Compound 304], for which, at β-secretase(BACE) [1] (setting [3]), the inhibition at 0.3 µM is less than 30%. On β-secretase(BACE) [1] (setting [4]), the inhibition at 1 µM is 46%. Further, the inhibition at 3 µM on β-secretase(BACE) [1] (setting [5]) was 100%. Besides, the Ki at β-secretase(BACE) [2] turned out to be 0.56 µM.
Take `NC1=Nc2ccc(Oc3ccccc3)cc2CN1[C@@H](CCC(=O)N(CC(=O)O)C1CCCCC1)C1CCCCC1` [Compound 768, {[4-(2-Amino-6-phenoxy-4H-quinazolin-3-yl)-4S-cyclohexyl-butyryl]-cyclohexyl-amino}-acetic acid]: on β-secretase(BACE) [1] (read-out: % Inhibition (FS)), the inhibition at 0.3 µM is 122%, the inhibition at 1 µM came to 120% and the inhibition at 3 µM came to 126%. For the same compound, the Ki on β-secretase(BACE) [2] was 0.013 µM.
Regarding `CCOC(=O)C1CCC(N(C)C(=O)CCC(C2CCOCC2)N2Cc3cc(Oc4ccccc4)ccc3N=C2N)CC1` (stereo not drawn) [Compound 742], at β-secretase(BACE) [1] (read-out: % Inhibition (FS)), the inhibition at 0.3 µM is 17%, the inhibition at 1 µM is 63% and the inhibition at 3 µM came to 101%. Besides, the Ki on β-secretase(BACE) [2] was 0.168 µM.
`COc1ccccc1-c1ccc2c(c1)CN(CCC(=O)NC1C3CC4CC(C3)CC1C4)C(N)=N2` (stereo not drawn) [Compound 556]: the inhibition at 0.3 µM at β-secretase(BACE) [1] (setting [3]) was determined as 103%. For the same compound, on β-secretase(BACE) [1] (setting [4]), the inhibition at 1 µM stood at 118%. Also, the inhibition at 3 µM at β-secretase(BACE) [1] (setting [5]) was found to be 126%. The Ki at β-secretase(BACE) [2] was 0.044 µM.
On to `NC1=Nc2ccc(-c3ccccc3F)cc2CN1CCC(=O)NC1C2CC3CC(C2)CC1C3` (stereo not drawn) [Compound 635], for which the inhibition at 0.3 µM on β-secretase(BACE) [1] (setting [3]) came out at 104%. Moreover, on β-secretase(BACE) [1] (setting [4]), the inhibition at 1 µM came out at 115%. In addition, the inhibition at 3 µM at β-secretase(BACE) [1] (setting [5]) is 119%. Further, at β-secretase(BACE) [2], the Ki is 0.014 µM.
Turning to `CN(C(=O)c1cccc(CN2Cc3cc(-c4ccccc4[N+](=O)[O-])ccc3N=C2N)c1)C1CCCCC1` [Compound 333], at β-secretase(BACE) [1] (setting [3]), the inhibition at 0.3 µM was less than 30%. At β-secretase(BACE) [1] (setting [4]), the inhibition at 1 µM is less than 30%. In addition, the inhibition at 3 µM at β-secretase(BACE) [1] (setting [5]) was found to be 78%. For the same compound, the Ki on β-secretase(BACE) [2] worked out at 0.49 µM.
